Earlier results as cited in patent US20190321435A1, “ACORUS GRAMINEUS AS A PHARMACOLOGICALLY ACTIVE NATURAL TREATMENT IN THE ADDICTION OF NICOTINE” (priority 2018, published 2019).

What was measured:
[1] = cited from earlier work
[2] = system: intravenous self-administration (IVSA) of nicotine; details: rodents; high-dose (Rauhut et al., 2003); cited from earlier work

SMILES | adverse effect of intravenous administration ([1]; administered intravenously) | first-pass hepatic metabolism ([1]; oral administration (swallowing)) | self-administration of nicotine [2]
CN1CCc2cccc3c2[C@H]1Cc1ccc(O)c(O)c1-3 [apomorphine] | crystallization of the drug and lead to thrombus formation and pulmonary embolism | significant first-pass hepatic metabolism | 
CC(NC(C)(C)C)C(=O)c1cccc(Cl)c1 (stereo not drawn) [bupropion] |  |  | reduce self-administration of nicotine
